From PubChem BioAssay AID179 (DTP/NCI, 2004)
Several values for one entry are separate records, joined by “and”; a condition that tells them apart may be missing. Identical values can stand only once. Activity calls are given as the source filed them.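 The calls were made as follows: active = compounds giving half or more protection of infected cells from virus-caused growth loss, again on retest; inactive = the rest.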 Where a SMILES comes first, the peptide text is derived from it. [ ]: non-standard residue; d: D form. The star is where a group is joined. ξ: configuration not given here. ξD = NC(CC(=O)O)C(=O)O; Ac3c = NC1(C(=O)O)CC1; Boc = CC(C)(C)OC(=O)*; OBn = c1ccc(CO*)cc1

Test system: CEM cells HIV-1 protection, formazan growth assay
Assay: NCI AIDS Antiviral Assay
Conditions: for IC50: measured here: growth of uninfected CEM cells
Summary of the method: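 Protection of CEM cells against HIV-1 measured as cell growth via soluble formazan read-out, with five concentrations tested on both infected and uninfected cells; failure to protect may reflect toxicity.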

Row | Compound | EC50 | IC50 [µM] | outcome
1 | Nc1ccc(C(=O)NN2C(=O)C(Cl)C2c2ccccc2)cc1 (configuration not stated) | > 200 µM | 47.9 | 
2 | N#C/C(=C\n1c(=S)[nH]c2ccccc21)c1nc2ccccc2s1 | > 200 µM | > 200 | 
3 | COC(=O)c1noc2c1CSc1ccccc1-2 | > 263 µM | 123 | 
4 | CC(C)(C)S(=O)OC12CC3CC(CC(C3)C1)C2 (configuration not stated) | > 708 µM | 151 | 
5 | NC(=O)N/N=C/C(/C=N/NC(N)=O)[N+](=O)[O-] | > 112 µM | > 112 | 
6 | COc1ccc(C2NC3=C(CCCC3)C3(C#N)C(=O)N=C(N)C23C#N)cc1 (configuration not stated) | > 200 µM | 107 | 
7 | COC(=O)C1(NC(=O)C(CC(=O)OCc2ccccc2)NC(=O)OC(C)(C)C)CC1 (configuration not stated) (Boc-[ξD](OBn)-[Ac3c]-OMe) | > 200 µM | > 200 | 
8 | CC1=C(O)C(=O)C2C(=O)C1C1Cc3ccccc3C21 (configuration not stated) | > 513 µM | > 513 | 
9 | CCCCCCCCCCCC(=O)OCC1OC(OC)C(NC(=O)N(CCCl)N=O)C(O)C1O (configuration not stated) | > 26.3 µM | 22.4 | 
10 | COc1nc2c(c(=O)n1C)NC(C(O)C(O)CO)C=N2 (configuration not stated) | 182 µM and 174 µM | > 200 | 
11 | CC(=O)Oc1ccn2nc(C)c(Br)c2c1 | > 200 µM | 93.3 | 
12 | N#CC(NC12CC3CC(CC(C3)C1)C2)c1ccccc1C(F)(F)F (configuration not stated) | > 77.6 µM | > 77.6 | 
13 | COC(=O)c1cc(C(CCl)c2cc(C(=O)OC)c(O)c(Br)c2C)c(C)c(Br)c1O |  |  | inactive
14 | COc1ccc(/C=C(/C#N)C(N)=O)c(OC)c1 | > 200 µM | 60.3 | 
15 | CC1=Nn2c(nnc2-c2ccc(N)cc2)NC(C)(C)C1 | > 933 µM | > 933 | 
16 | O=[N+]([O-])c1ccc2[nH]nc(OCc3ccccn3)c2c1 | 115 µM | > 200 | 
17 | O=C1C2N=NNC2C(=O)N1c1ccccc1 (configuration not stated) | > 200 µM | > 200 | 
18 | O=C(O)/C(=C\c1ccccc1Cl)S(=O)(=O)c1ccccc1 |  |  | inactive
19 | CCC1(Br)OC1=O (configuration not stated) | > 200 µM | 107 | 
20 | Cc1ccc(Oc2ccc(C)cc2N)cc1 |  |  | inactive
21 | NCC(=O)NC1OC(COP(=O)(O)O)C(O)C1O (configuration not stated) | > 200 µM | > 200 | 
22 | Cc1ccc(NC(=O)C(=O)C2C(=O)NC(=O)NC2=O)c(C)c1 | > 832 µM | > 832 | 

Row | Compound | EC50 | IC50 [µM] | outcome
23 | O=C(O)c1cc(C(c2ccc(O)c(C(=O)O)c2)c2ccc(O)c(C(=O)O)c2)ccc1O | > 151 µM | 28.8 | 
24 | CCOC(=O)/C(C#N)=C/c1ccnc2ccccc12 | > 200 µM | 3.8 | 
25 | O=C(CCCCCCCCC(=O)OCC1OC(n2cnc3c(=O)[nH]cnc32)C(O)C1O)OCC1OC(n2cnc3c(=O)[nH]cnc32)C(O)C1O (configuration not stated) | > 355 µM | > 355 | 
26 | O=C(CC(=O)CC(O)(C(F)(F)F)C(F)(F)F)CC(O)(C(F)(F)F)C(F)(F)F | > 200 µM | 10.5 | 
27 | O=C(OCCN=c1c2ccccc2ccc2ccccc12)c1ccc([N+](=O)[O-])cc1 | > 200 µM | > 200 | 
28 | C=CCC1(C2=C(C)C(=O)c3ccccc32)CCCS1 (configuration not stated) | > 200 µM | 31.6 | 
29 | COC(=O)c1ccc(COC(=O)c2cc(C(=CCC[C@H]3CC[C@@]4(C)[C@@H](CC[C@@H]5[C@@H]4CC[C@]4(C)[C@@H](C(C)CCCC(C)C)CC[C@@H]54)C3)c3cc(Cl)c(OCc4ccc(C(=O)OC)cc4)c(C(=O)OCc4ccc(C(=O)OC)cc4)c3)cc(Cl)c2OCc2ccc(C(=O)OC)cc2)cc1 (some centres not stated) | > 200 µM | > 200 | 
30 | CC(C)(CC1=CC(=O)C=CC1=O)Cc1ccccc1 | > 200 µM | 37.2 | 
31 | O=[N+]([O-])c1cc(/C=N/NS(=O)(=O)c2ccc(F)cc2)c(O)c([N+](=O)[O-])c1 | > 646 µM | 37.2 | 
32 | CCOC(=O)/C(C#N)=C/c1ccccc1OC | > 112 µM | > 112 | 
33 | CN(C)c1nc2oc(-c3ccccc3)c(-c3ccccc3)c2c2nnnn12 |  |  | inactive
34 | COc1ccc(C2=CSC3=NC(C)(C)CC(C)=NN23)cc1 | > 316 µM | 170 | 
35 | O=C1OC(c2cccs2)Sc2ccccc21 (configuration not stated) | > 200 µM | 195 | 
36 | CCN(CC)c1ccc2c(c1)Nc1cc(=C(C#N)C#N)c3ccccc3c1=N2 | > 19.5 µM | > 19.5 | 
37 | C(/C=C\c1ccccc1)=NCCCCCCN=C/C=C/c1ccccc1 | > 20 µM | 12.3 | 
38 | CCCCCCCCC[C@@H]1C[C@H](O)[C@H](Cc2ccccc2)N1C(=O)OC(C)(C)C | > 200 µM | 35.5 | 
39 | COc1ccc(N)c(N2C(=O)c3ccccc3C2=O)c1 | > 200 µM | > 200 | 
40 | CCN(CC)CCN1CC(=O)N2Cc3ccccc3CN2C(=O)C1 | > 200 µM | > 200 | 
41 | Cc1nnc2c3nccnc3c(N)nn12 | > 200 µM | > 200 | 
42 | [O-]/C(=C\[P+](c1ccccc1)(c1ccccc1)c1ccccc1)c1ccccc1 | > 200 µM | 32.4 | 
43 | CC(C)OP(=O)(NC(=S)c1ccccc1)OC(C)C | > 316 µM | 295 | 
